Structures can show the parent of a compound that is named as a salt.
Target: T1, human C3a receptor (C3aR) (Homo sapiens, UniProt Q16581)
T1 construct: expressed in transfected cells
T1 sequence (Q16581 1-482): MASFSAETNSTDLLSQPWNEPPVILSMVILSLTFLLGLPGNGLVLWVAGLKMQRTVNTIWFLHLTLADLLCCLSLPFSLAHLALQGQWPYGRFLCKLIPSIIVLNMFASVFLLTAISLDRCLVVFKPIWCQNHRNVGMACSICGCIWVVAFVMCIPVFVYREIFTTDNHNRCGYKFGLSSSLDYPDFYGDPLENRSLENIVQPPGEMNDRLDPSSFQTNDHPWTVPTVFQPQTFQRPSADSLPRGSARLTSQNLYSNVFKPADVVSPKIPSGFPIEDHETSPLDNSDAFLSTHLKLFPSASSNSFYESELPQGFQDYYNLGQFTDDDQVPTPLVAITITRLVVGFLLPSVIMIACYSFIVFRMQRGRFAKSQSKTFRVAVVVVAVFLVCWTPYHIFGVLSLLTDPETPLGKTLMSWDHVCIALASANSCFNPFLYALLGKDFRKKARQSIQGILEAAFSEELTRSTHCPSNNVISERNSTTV
Assay: Inhibition of human [125I]-C3a binding to human C3a receptor (SPA, membranes of HEK293 cells expressing recombinant C3aR)
Details: 0.1 nM [125I]-C3a, 3 hours at room temperature
Description: Inhibition of human [^125I]-C3a binding to human C3a receptor
Binding of human [^125I]-C3a to human C3a receptor (C3aR) was done using cell membranes from HEK293 cells stably expressing recombinant C3aR, in a homogeneous scintillation proximity assay (SPA). The C3aR cell membranes were pre-coupled over-night at 4° C. to WGA-PVT SPA beads (Amersham) at a ratio of 10 μg cell membrane to 0.5 mg beads/assay. Assay was performed in 96-well microtiter Optiplates (Packard) by mixing coupled beads and 0.1 nM [^125I]-C3a (2200 Ci/mmol, Perkin Elmer Life Sciences), in a total volume of […] binding buffer (20 mM HEPES, pH 7.4, 125 mM NaCl, 5 mM KCl, 1 mM CaCl2, 1 mM MgCl2, 0.25% BSA, 0.2% CHAPS). Test compounds were diluted in DMSO and were tested for their inhibitory potential in the assay (final concentration≦1% DMSO). Incubation was done for 3 hours at room temperature followed by reading in a TopCount scintillation microplate reader. Non-specific binding was determined by adding 1 μM unlabeled C3a (Calbiochem) to the assay mixture. Calculation of the IC50 was done as above using a nonlinear least square fitting program, with Graphpad Prism.

Row | IC50 (Table 6) [nM] | Structure (SMILES) | also measured
1 | < 50 | CC(=N)NCCC[C@H](NC(=O)c1cccn(Cc2cc(Br)cc(Br)c2)c1=O)C(=O)O [Compound 115, (2S)-2-({[1-(3,5-dibromobenzyl)-2-oxo-1,2-dihydropyridin-3-yl]carbonyl}amino)-5-(ethanimidoylamino)pentanoic acid•TFA] | –
2 | 50 to 500 | CC(=N)NCCC[C@H](NC(=O)c1cccn(Cc2cccc(I)c2)c1=O)C(=O)O [Compound 114, (2S)-5-(ethanimidoylamino)-2-({[1-(3-iodobenzyl)-2-oxo-1,2-dihydropyridin-3-yl]carbonyl}amino)pentanoic acid•TFA] | –
3 | 50 to 500 | CC(=N)NCCC[C@H](NC(=O)c1cccn(Cc2cccc(Cl)c2)c1=O)C(=O)O [Compound 101, (2S)-2-({[1-(3-chlorobenzyl)-2-oxo-1,2-dihydropyridin-3-yl]carbonyl}amino)-5-(ethanimidoylamino)pentanoic acid•TFA] | –
4 | 500 to 20000 | CC(=N)Nc1cccc([C@H](NC(=O)c2ccc(C(c3ccccc3)c3ccccc3)s2)C(=O)O)c1 [Compound 134, (2S)-({[5-(Diphenylmethyl)thiophen-2-yl]carbonyl}amino)[3-(ethanimidoylamino)phenyl]ethanoicacid] | –
5 | 50 to 500 | CC(=N)NCCC[C@H](NC(=O)c1ccc(C(c2ccc(F)cc2)c2ccc(F)cc2)s1)C(=O)O [Compound 128, (2S)-2-[({5-[bis(4-fluorophenyl)methyl]thiophen-2-yl}carbonyl)amino]-5-(ethanimidoylamino)pentanoic acid•TFA] | –
6 | < 50 | N=C(N)NCCC[C@H](NC(=O)c1ccc(C(c2ccccc2)c2ccccc2)s1)C(=O)O [Compound 97, (2S)-5-Carbamimidamido-2-({[5-(diphenylmethyl)thiophen-2-yl]carbonyl}amino)pentanoic acid] | –
7 | < 50 | N/C(=N\O)NCCC[C@H](NC(=O)c1cccn(C(c2ccccc2)c2ccccc2)c1=O)C(=O)O [Compound 92, (2S)-2-({[1-(Diphenylmethyl)-2-oxo-1,2-dihydropyridin-3-yl]carbonyl}amino)-5-(hydroxycarb-amimidamido)pentanoicacid] | –

The remaining lines, values behind:

Row | Structure (SMILES) | IC50 (Table 6) [nM] | also measured
8 | Cc1ccc(S(=O)(=O)NCCC[C@H](NC(=O)c2cccn(C(c3ccccc3)c3ccccc3)c2=O)C(=O)O)cc1 [Compound 68, (2S)-2-({[1-(diphenylmethyl)-2-oxo-1,2-dihydropyridin-3-yl]carbonyl}amino)-5-{[(4-methylphenyl)sulfonyl]amino}pentanoic acid] | – | IC50 (Table 4): 500 to 20000 nM
9 | N=C(N)NCCC[C@H](NC(=O)c1cccn(Cc2ccc3ccccc3c2)c1=O)C(=O)O [Compound 13, (2S)-5-carbamimidamido-2-({[1-(2-naphthylmethyl)-2-oxo-1,2-dihydropyridin-3-yl]carbonyl}amino)pentanoic acid•TFA] | – | IC50 (Table 1): < 50 nM
10 | N=C(N)NCCC[C@H](NC(=O)c1ccc(=O)n(Cc2ccccc2)c1)C(=O)O [Compound 54, (2S)-2-{[(1-benzyl-6-oxo-1,6-dihydropyridin-3-yl)carbonyl]amino}-5-carbamimidamidopentanoic acid•TFA] | – | IC50 (Table 3): 50 to 500 nM
11 | N=C(N)NCCC[C@H](NC(=O)c1cccn(C(c2ccccc2F)c2ccccc2F)c1=O)C(=O)O [Compound 46, (2S)-2-[({1-[bis(2-fluorophenyl)methyl]-2-oxo-1,2-dihydropyridin-3-yl}carbonyl)amino]-5-carbamimidamidopentanoic acid•TFA] | – | IC50 (Table 2): < 50 nM
12 | N=C(N)NCCC[C@H](NC(=O)c1cccn(Cc2ccc(Br)cc2)c1=O)C(=O)O [Compound 5, (2S)-2-({[1-(4-bromobenzyl)-2-oxo-1,2-dihydropyridin-3-yl]carbonyl}amino)-5-carbamimidamidopentanoic acid•TFA] | – | IC50 (Table 1): < 50 nM
13 | N=C(N)NCCC[C@H](NC(=O)c1cccn(Cc2cccc(-c3ccccc3)c2)c1=O)C(=O)O [Compound 21, (2S)-2-({[1-(biphenyl-3-ylmethyl)-2-oxo-1,2-dihydropyridin-3-yl]carbonyl}amino)-5-carbamimidamidopentanoic acid•TFA] | – | IC50 (Table 1): 50 to 500 nM

Source: patent US20080188528A1, “Modulators of C3a receptor and methods of use thereof” (priority 2006, published 2008)
